Measured values: patent US10100049B2, “JAK kinase inhibitor compounds for treatment of respiratory disease” (THERAVANCE BIOPHARMA R&D IP, LLC, priority 2015, dated 2018)

How the values were obtained:
[1] = tested on: IL-13 induced STAT6 phosphorylation in BEAS-2B human lung epithelial cells; test: AlphaScreen cellular potency assay, IL-13 induced STAT6 phosphorylation in BEAS-2B cells; type: cell-based; conditions: IL-13 induced STAT6 phosphorylation, BEAS-2B cells; for IC50: Homo sapiens, read-out: BEAS-2B pIC50 (converted)
Description: The AlphaScreen JAM cellular potency assay was carried out by measuring interleukin-13 (IL-13, R&D Systems) induced STAT6 phosphorylation in BEAS-2B human lung epithelial cells (ATCC). The anti-STAT6 antibody (Cell Signaling Technologies) was conjugated to AlphaScreen acceptor beads (Perkin Elmer), while the anti-pSTAT6 (pTyr641) antibody (Cell Signaling Technologies) was biotinylated using EZ-Link Sulfo-NHS-Biotin (Thermo Scientific).
BEAS-2B cells were grown at 37° C. in a 5% CO2 humidified incubator in 50% DMEM/50% F-12 medium (Life Technologies) supplemented with 10% FBS (Hyclone), 100 U/mL penicillin, 100 μg/mL streptomycin (Life Technologies), and 2 mM GlutaMAX (Life Technologies). On day 1 of the assay, cells were seeded at a 7,500 cells/well density in white poly-D-lysine-coated 384-well plates (Corning) with 25 μL medium, and were allowed to adhere overnight in the incubator. On day 2 of the assay, the medium was removed and replaced with 12 μL of assay buffer (Hank's Balanced Salt Solution/HBSS, 25 mM HEPES, and 1 mg/ml bovine serum albumin/BSA) containing dose-responses of test compounds. Compounds were serially diluted in DMSO and then diluted another 1000-fold in media to bring the final DMSO concentration to 0.1%. Cells were incubated with test compounds at 37° C. for 1 h, and followed by the addition of 12 μl of pre-warmed IL-13 (80 ng/ml in assay buffer) for stimulation. After incubating at 37° C. for 30 min, the assay buffer (containing compound and IL-13) was removed, and 10 μl of cell lysis buffer (25 mM HEPES, 0.1% SDS, 1% NP-40, 5 mM MgCl2, 1.3 mM EDTA, 1 mM EGTA, and supplement with Complete Ultra mini protease inhibitors and PhosSTOP from Roche Diagnostics). The plates were shaken at ambient temperature for 30 min before the addition of detection reagents. A mixture of biotin-anti-pSTAT6 and anti-STAT6 conjugated acceptor beads was added first and incubated at ambient temperature for 2 h, followed by the addition of streptavidin conjugated donor beads (Perkin Elmer). After a minimum of 2 h incubation, the assay plates were read on the EnVision plate reader.
Results were expressed as the negative logarithm of the IC50 value, pIC50.

JAK2 = JAK2 (Homo sapiens (Human), UniProt O60674)
[2] = tested on: IL-13 induced pSTAT6 in lung tissue; test: Murine model of IL-13 induced pSTAT6 induction in lung tissue; type: in vivo; conditions: mouse lung; for pSTAT6 inhibition Assay 5 / inhibition in vivo at 500 µg/mL: 0.5 mg/mL, 50 μL oral aspiration, IL-13 challenge 4 h after dosing, lungs collected 1 h later; for inhibition in vivo at 500 µg/mL: read-out: pSTAT6 inhibition Assay 5
Description: Il-13 is an important cytokine underlying the pathophysiology of asthma (Kudlacz et al. Eur. J. Pharmacol, 2008, 582, 154-161). IL-13 binds to cell surface receptors activating members of the Janus family of kinases (JAK) which then phosphorylate STAT6 and subsequently activates further transcription pathways. In the described model, a dose of IL-13 was delivered locally into the lungs of mice to induce the phosphorylation of STAT6 (pSTAT6) which is then measured as the endpoint.
Adult balb/c mice from Harlan were used in the assay. On the day of study, animals were lightly anesthetized with isoflurane and administered either vehicle or test compound (0.5 mg/mL, 50 μL total volume over several breaths) via oral aspiration. Animals were placed in lateral recumbency post dose and monitored for full recovery from anesthesia before being returned to their home cage. Four hours later, animals were once again briefly anesthetized and challenged with either vehicle or IL-13 (0.03 μg total dose delivered, 50 μL total volume) via oral aspiration before being monitored for recovery from anesthesia and returned to their home cage. One hour after vehicle or IL-13 administration, lungs were collected for both pSTAT6 detection using an anti-pSTAT6 ELISA (rabbit mAb capture/coating antibody; mouse mAb detection/report antibody: anti-pSTAT6-pY641; secondary antibody: anti-mouse IgG-HRP) and analyzed for total drug concentration as described above in Assay 4.
Selected compounds of the invention were tested in the assay. Activity in the model is evidenced by a decrease in the level of pSTAT6 present in the lungs of treated animals at 5 hours compared to the vehicle treated, IL-13 challenged control animals. The difference between the control animals which were vehicle-treated, IL-13 challenged and the control animals which were vehicle-treated, vehicle challenged dictated the 0% and 100% inhibitory effect, respectively, in any given experiment.

[3] = Pharmacokinetics in plasma and lung in mouse; type: in vivo; conditions: oral aspiration 0.2 mg/mL 50 uL, lung AUC (μg hr/g) / plasma AUC (μg hr/mL)
Description: Plasma and lung levels of test compounds and ratios thereof were determined in the following manner. BALB/c mice from Charles River Laboratories were used in the assay. Test compounds were individually formulated in 20% propylene glycol in pH 4 citrate buffer at a concentration of 0.2 mg/mL and 50 uL of the dosing solution was introduced into the trachea of a mouse by oral aspiration. At various time points (typically 0.167, 2, 6, 24 hr) post dosing, blood samples were removed via cardiac puncture and intact lungs were excised from the mice. Blood samples were centrifuged (Eppendorf centrifuge, 5804R) for 4 minutes at approximately 12,000 rpm at 4° C. to collect plasma. Lungs were padded dry, weighed, and homogenized at a dilution of 1:3 in sterile water. Plasma and lung levels of test compound were determined by LC-MS analysis against analytical standards constructed into a standard curve in the test matrix. A lung to plasma ratio was determined as the ratio of the lung AUC in μg hr/g to the plasma AUC in μg hr/mL, where AUC is conventionally defined as the area under the curve of test compound concentration vs. time.

JAK3 = JAK3 (Homo sapiens (Human), UniProt P52333); test: LanthaScreen JAK biochemical assay (JAK3); conditions: ATP at Km 1.6 μM; read-out: JAK 3 (pKi) (converted)
Tyk2 = Tyk2 (Homo sapiens (Human), UniProt P29597); test: LanthaScreen JAK biochemical assay (Tyk2); conditions: read-out: Tyk 2 (PKi); further: ATP at Km 10 µM
Tyk2, sequence (P29597 whole entry): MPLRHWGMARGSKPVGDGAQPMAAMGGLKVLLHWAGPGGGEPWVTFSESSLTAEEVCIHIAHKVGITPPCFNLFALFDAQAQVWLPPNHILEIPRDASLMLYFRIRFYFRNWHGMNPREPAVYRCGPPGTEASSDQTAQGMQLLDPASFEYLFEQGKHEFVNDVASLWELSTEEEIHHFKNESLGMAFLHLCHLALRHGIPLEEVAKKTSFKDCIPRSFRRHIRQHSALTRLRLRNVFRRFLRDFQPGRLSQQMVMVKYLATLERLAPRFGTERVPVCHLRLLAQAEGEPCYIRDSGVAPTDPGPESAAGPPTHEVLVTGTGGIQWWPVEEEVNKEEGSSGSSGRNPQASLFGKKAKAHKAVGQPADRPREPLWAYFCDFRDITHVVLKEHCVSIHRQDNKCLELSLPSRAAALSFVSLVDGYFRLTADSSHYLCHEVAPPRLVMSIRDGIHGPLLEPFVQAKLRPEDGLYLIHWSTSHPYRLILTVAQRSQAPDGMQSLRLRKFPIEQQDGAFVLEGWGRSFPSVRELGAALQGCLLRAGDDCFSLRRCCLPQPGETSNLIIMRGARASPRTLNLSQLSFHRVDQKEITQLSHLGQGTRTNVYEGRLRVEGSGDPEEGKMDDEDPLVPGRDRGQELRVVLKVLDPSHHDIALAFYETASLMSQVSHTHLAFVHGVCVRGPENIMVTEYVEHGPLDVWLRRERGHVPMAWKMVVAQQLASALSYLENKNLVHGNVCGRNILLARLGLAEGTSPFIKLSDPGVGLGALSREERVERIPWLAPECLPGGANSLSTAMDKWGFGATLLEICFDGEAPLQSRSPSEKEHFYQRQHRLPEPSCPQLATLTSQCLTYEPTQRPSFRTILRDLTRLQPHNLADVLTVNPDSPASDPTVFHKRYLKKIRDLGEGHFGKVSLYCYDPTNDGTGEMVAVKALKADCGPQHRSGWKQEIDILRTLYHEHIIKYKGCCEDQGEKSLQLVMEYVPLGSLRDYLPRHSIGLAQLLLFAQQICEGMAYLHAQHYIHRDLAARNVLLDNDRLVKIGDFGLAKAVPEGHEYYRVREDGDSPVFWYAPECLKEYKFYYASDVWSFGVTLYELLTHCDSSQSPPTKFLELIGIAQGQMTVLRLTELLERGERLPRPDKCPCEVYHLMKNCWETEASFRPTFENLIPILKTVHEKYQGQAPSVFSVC

JAK2, sequence (O60674 whole entry): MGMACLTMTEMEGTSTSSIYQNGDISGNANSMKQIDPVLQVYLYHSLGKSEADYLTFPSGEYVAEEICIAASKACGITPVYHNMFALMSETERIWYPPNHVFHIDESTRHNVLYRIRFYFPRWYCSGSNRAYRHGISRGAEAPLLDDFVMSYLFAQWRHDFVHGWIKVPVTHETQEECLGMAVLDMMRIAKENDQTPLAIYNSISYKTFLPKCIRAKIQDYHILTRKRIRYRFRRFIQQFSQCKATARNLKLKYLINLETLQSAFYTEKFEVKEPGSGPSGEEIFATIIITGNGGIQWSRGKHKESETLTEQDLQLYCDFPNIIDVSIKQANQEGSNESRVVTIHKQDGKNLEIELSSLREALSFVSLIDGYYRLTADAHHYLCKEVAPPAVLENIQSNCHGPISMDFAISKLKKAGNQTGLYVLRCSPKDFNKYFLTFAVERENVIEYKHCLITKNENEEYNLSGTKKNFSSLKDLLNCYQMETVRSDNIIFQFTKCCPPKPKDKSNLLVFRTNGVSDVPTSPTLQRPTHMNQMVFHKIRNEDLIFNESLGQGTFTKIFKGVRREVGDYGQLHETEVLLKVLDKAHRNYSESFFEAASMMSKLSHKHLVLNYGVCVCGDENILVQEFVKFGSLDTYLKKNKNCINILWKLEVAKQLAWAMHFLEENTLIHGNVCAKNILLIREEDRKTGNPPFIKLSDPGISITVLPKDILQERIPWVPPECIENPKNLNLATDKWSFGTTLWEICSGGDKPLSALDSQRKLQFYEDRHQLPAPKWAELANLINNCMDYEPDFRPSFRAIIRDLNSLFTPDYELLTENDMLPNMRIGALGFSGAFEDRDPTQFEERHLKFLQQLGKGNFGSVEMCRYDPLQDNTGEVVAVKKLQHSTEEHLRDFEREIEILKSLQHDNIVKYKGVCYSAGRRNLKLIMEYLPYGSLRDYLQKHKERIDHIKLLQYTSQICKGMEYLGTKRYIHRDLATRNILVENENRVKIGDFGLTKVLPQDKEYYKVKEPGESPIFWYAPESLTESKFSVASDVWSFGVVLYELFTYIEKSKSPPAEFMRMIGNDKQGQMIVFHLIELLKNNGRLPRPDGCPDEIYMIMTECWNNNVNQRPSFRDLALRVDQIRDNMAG
JAK3, sequence (P52333 whole entry): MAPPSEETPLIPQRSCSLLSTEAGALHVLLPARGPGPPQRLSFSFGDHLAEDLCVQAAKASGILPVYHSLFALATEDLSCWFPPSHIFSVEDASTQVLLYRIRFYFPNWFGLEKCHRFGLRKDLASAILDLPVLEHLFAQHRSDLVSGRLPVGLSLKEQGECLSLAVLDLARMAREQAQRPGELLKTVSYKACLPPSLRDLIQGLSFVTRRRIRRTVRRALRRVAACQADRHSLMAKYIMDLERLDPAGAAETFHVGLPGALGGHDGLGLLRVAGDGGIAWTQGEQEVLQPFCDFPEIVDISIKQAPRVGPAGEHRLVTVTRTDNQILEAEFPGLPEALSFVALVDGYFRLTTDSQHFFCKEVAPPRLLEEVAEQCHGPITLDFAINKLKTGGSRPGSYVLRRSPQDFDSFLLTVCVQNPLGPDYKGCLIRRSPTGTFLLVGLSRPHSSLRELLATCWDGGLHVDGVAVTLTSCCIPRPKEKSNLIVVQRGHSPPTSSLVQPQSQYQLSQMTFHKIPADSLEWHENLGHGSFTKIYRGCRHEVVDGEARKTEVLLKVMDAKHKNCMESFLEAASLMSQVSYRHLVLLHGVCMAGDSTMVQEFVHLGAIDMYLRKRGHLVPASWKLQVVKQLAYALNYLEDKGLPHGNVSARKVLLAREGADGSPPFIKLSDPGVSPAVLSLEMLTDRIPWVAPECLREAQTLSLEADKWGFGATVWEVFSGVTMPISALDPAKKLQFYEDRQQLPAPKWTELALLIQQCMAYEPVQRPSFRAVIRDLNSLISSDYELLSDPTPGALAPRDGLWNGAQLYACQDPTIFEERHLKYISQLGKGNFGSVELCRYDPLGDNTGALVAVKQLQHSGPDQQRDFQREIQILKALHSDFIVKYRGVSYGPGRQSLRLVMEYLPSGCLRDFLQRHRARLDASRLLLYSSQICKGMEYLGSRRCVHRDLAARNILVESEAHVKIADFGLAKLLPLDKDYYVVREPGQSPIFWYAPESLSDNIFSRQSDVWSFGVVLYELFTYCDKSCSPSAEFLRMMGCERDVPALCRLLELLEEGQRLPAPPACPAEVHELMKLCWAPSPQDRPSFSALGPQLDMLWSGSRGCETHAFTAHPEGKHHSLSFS

| Structure (SMILES) | BEAS-2B pIC50 [1] | Ki (JAK2) | Lung to Plasma ratio Assay 4 [3] | IC50 [1] | inhibition in vivo at 500 µg/mL [2] | other results |
| --- | --- | --- | --- | --- | --- | --- |
| CCc1cc(O)c(F)cc1-c1ccc2c(-c3nc4c([nH]3)CCN(C3CN(CCO)C3)C4)n[nH]c2c1 [Example 1-1] | B (B represents a pIC50 value between 7.4 and 8 (IC50 between 40 nM and 10 nM)) | < 0.1 nM |  |  |  |  |
| CCc1cc(O)c(F)cc1-c1ccc2c(-c3nc4c([nH]3)CCN(C3CN(CC)C3)C4)n[nH]c2c1 [Example 1-3] | B (B represents a pIC50 value between 7.4 and 8 (IC50 between 40 nM and 10 nM)) | < 0.1 nM |  |  |  |  |
| CCc1cc(O)c(F)cc1-c1ccc2c(-c3nc4c([nH]3)CCN(C3CN(CCOC)C3)C4)n[nH]c2c1 [Example 1-6] | A (A represents a pIC50 value ≥8 (IC50≤10 nM)) | < 0.1 nM |  |  |  |  |
| CCc1cc(O)c(F)cc1-c1ccc2c(-c3nc4c([nH]3)CCN(C3CN(CCCOC)C3)C4)n[nH]c2c1 [Example 1-7] |  |  | B (B denotes a ratio between 50 and 100) |  |  | pSTAT6 inhibition Assay 5 [2]: C (C represents between 33% and 50% inhibition) |
| CCc1cc(O)c(F)cc1-c1ccc2c(-c3nc4c([nH]3)CCN(C3CN(CCC#N)C3)C4)n[nH]c2c1 [Example 1-8] | A (A represents a pIC50 value ≥8 (IC50≤10 nM)) | < 0.1 nM |  |  |  |  |
| CCc1cc(O)c(F)cc1-c1ccc2c(-c3nc4c([nH]3)CCN(C3CN(CC(C)C)C3)C4)n[nH]c2c1 [Example 1-11] |  |  | C (C denotes a ratio between 10 and 50) |  |  | pSTAT6 inhibition Assay 5 [2]: C (C represents between 33% and 50% inhibition) |
| CCc1cc(O)c(F)cc1-c1ccc2c(-c3nc4c([nH]3)CCN(C3CN(C5CCS(=O)(=O)C5)C3)C4)n[nH]c2c1 (stereo not shown) [Example 1-15] |  |  |  |  |  | pSTAT6 inhibition in the pharmacodynamic assay [2]: exceptions |
| CCc1cc(O)c(F)cc1-c1ccc2c(-c3nc4c([nH]3)CCN(C3CN(CC5CC5)C3)C4)n[nH]c2c1 [Example 1-18] |  |  | B (B denotes a ratio between 50 and 100) |  |  | pSTAT6 inhibition Assay 5 [2]: C (C represents between 33% and 50% inhibition) |
| CCc1cc(O)c(F)cc1-c1ccc2c(-c3nc4c([nH]3)CCN(C3CCNCC3)C4)n[nH]c2c1 [Example 2-3] | B (B represents a pIC50 value between 7.4 and 8 (IC50 between 40 nM and 10 nM)) | < 0.1 nM |  |  |  |  |
| CCc1cc(O)c(F)cc1-c1ccc2c(-c3nc4c([nH]3)CCN(CCNC3(C#N)CC3)C4)n[nH]c2c1 [Example 3-1] |  |  |  |  |  | pSTAT6 inhibition in the pharmacodynamic assay [2]: exceptions |
| CCc1cc(O)c(F)cc1-c1ccc2c(-c3nc4c([nH]3)CCN(CCN(C)CC(C)C)C4)n[nH]c2c1 [Example 3-33] |  |  | A (A denotes a ratio >100) |  |  | pSTAT6 inhibition Assay 5 [2]: C (C represents between 33% and 50% inhibition) |
| CCc1cc(O)c(F)cc1-c1ccc2c(-c3nc4c([nH]3)CCN(C3CN(C(C)CC)C3)C4)n[nH]c2c1 (stereo not shown) [Example 4, 4-(3-(5-(1-(sec-butyl)azetidin-3-yl)-4,5,6,7-tetrahydro-1H-imidazo[4,5-c]pyridin-2-yl)-1H-indazol-6-yl)-5-ethyl-2-fluorophenol] |  |  | B (B denotes a ratio between 50 and 100) | < 10 nM | > 65% |  |
| CCc1cc(O)c(F)cc1-c1ccc2c(-c3nc4c([nH]3)CCN(C3CN(C5CC5)C3)C4)n[nH]c2c1 [Example 5, 4-(3-(5-(1-cyclopropylazetidin-3-yl)-4,5,6,7-tetrahydro-1H-imidazo[4,5-c]pyridin-2-yl)-1H-indazol-6-yl)-5-ethyl-2-fluorophenol] |  | < 0.1 nM | C (C denotes a ratio between 10 and 50) | < 10 nM | > 65% | Ki (JAK3): 0.1 to 1 nM; Ki (Tyk2): 0.316 to 1 nM |
| CCc1cc(O)c(F)cc1-c1ccc2c(-c3nc4c([nH]3)CCN(CCN(C)CC)C4)n[nH]c2c1 [Example 9, 5-ethyl-4-(3-(5-(2-(ethyl(methyl)amino)ethyl)-4,5,6,7-tetrahydro-1H-imidazo[4,5-c]pyridin-2-yl)-1H-indazol-6-yl)-2-fluorophenol] |  | < 0.1 nM | B (B denotes a ratio between 50 and 100) | < 10 nM | 50 to 65% | Ki (Tyk2): 0.316 to 1 nM |
| CCc1cc(O)c(F)cc1-c1ccc2c(-c3nc4c([nH]3)CCN(C3CCNC3)C4)n[nH]c2c1 (stereo not shown) [Example 9-1] | B (B represents a pIC50 value between 7.4 and 8 (IC50 between 40 nM and 10 nM)) | < 0.1 nM |  |  |  |  |
| CCc1cc(O)c(F)cc1-c1ccc2c(-c3nc4c([nH]3)CCN(C3CCN(C)C3)C4)n[nH]c2c1 (stereo not shown) [Example 9-2] |  | < 0.1 nM |  | < 10 nM |  | Ki (Tyk2): 0.316 to 1 nM |
| CCc1cc(O)c(F)cc1-c1ccc2c(-c3nc4c([nH]3)CCN(CCN(C)C(C)CC)C4)n[nH]c2c1 (stereo not shown) [Example 10, 4-(3-(5-(2-(sec-butyl(methyl)amino)ethyl)-4,5,6,7-tetrahydro-1H-imidazo[4,5-c]pyridin-2-yl)-1H-indazol-6-yl)-5-ethyl-2-fluorophenol] |  | < 0.1 nM | B (B denotes a ratio between 50 and 100) | < 10 nM | 33 to 50% | Ki (JAK3): 0.1 to 1 nM; Ki (Tyk2): 0.1 to 1 nM |
| CCc1cc(O)c(F)cc1-c1ccc2c(-c3nc4c([nH]3)CCN(CC(F)CN(C)C)C4)n[nH]c2c1 (stereo not shown) [Example 12, 4-(3-(5-(3-(dimethylamino)-2-fluoropropyl)-4,5,6,7-tetrahydro-1H-imidazo[4,5-c]pyridin-2-yl)-1H-indazol-6-yl)-5-ethyl-2-fluorophenol] |  | < 0.1 nM | C (C denotes a ratio between 10 and 50) | < 10 nM | 33 to 50% | Ki (JAK3): 0.1 to 1 nM; Ki (Tyk2): 0.316 to 1 nM |
| CCc1cc(O)c(F)cc1-c1ccc2c(-c3nc4c([nH]3)CCN(C[C@@H]3COCCN3)C4)n[nH]c2c1 [Example 14, (R)-5-Ethyl-2-fluoro-4-(3-(5-(morpholin-3-ylmethyl)-4,5,6,7-tetrahydro-1H-imidazo[4,5-c]pyridin-2-yl)-1H-indazol-6-yl)phenol] |  | < 0.1 nM | A (A denotes a ratio >100) | < 10 nM | > 65% |  |
| CCc1cc(O)c(F)cc1-c1ccc2c(-c3nc4c([nH]3)CCN(CC3CNC3)C4)n[nH]c2c1 [Example 14-7] | B (B represents a pIC50 value between 7.4 and 8 (IC50 between 40 nM and 10 nM)) | < 0.1 nM | A (A denotes a ratio >100) |  |  | pSTAT6 inhibition Assay 5 [2]: B (B represents between 50% and 65% inhibition) |
| CCc1cc(O)c(F)cc1-c1ccc2c(-c3nc4c([nH]3)CCN(CCN3CCC[C@@H]3C)C4)n[nH]c2c1 [Example 15, (S)-5-ethyl-2-fluoro-4-(3-(5-(2-(2-methylpyrrolidin-1-yl)ethyl)-4,5,6,7-tetrahydro-1H-imidazo[4,5-c]pyridin-2-yl)-1H-indazol-6-yl)phenol] |  | < 0.1 nM | A (A denotes a ratio >100) | < 10 nM | 50 to 65% | Ki (JAK3): 0.1 to 1 nM; Ki (Tyk2): 0.316 to 1 nM |
| CCc1cc(O)c(F)cc1-c1ccc2c(-c3nc4c([nH]3)CCN(CCN3CCCC3)C4)n[nH]c2c1 [Example 16, 5-Ethyl-2-fluoro-4-(3-(5-(2-(pyrrolidin-1-yl)ethyl)-4,5,6,7-tetrahydro-1H-imidazo[4,5-c]pyridin-2-yl)-1H-indazol-6-yl)phenol] |  | < 0.1 nM |  | < 10 nM |  |  |
